Test results reported in article PMC9728974 (Science Advances, 2022).

Columns and labels:
[1] = molecular target: T1, truncated PmiR protein (amino acids 15 to 232) (Pseudomonas aeruginosa, UniProt Q9I5E1); assay: ITC; type: binding
T1 sequence (Q9I5E1 15-232): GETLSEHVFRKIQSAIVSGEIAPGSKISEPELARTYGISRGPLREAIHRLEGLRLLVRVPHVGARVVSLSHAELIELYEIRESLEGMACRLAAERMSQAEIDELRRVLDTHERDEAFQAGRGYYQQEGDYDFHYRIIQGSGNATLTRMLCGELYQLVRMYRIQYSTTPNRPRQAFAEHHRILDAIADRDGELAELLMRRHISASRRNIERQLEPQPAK

PmiR = molecular target: T2, PmiR (Pseudomonas aeruginosa, UniProt Q9I5E1); assay: ITC; type: binding
T2 sequence (Q9I5E1 1-240): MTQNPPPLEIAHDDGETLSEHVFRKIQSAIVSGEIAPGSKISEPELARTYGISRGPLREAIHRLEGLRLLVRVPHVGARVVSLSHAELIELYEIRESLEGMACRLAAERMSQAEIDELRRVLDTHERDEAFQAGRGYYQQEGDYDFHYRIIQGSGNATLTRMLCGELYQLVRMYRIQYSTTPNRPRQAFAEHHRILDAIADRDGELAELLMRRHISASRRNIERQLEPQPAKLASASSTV

PrpB = molecular target: T3, PrpB (Pseudomonas aeruginosa, UniProt Q9I5E2); assay: HPLC-UV, A214; type: biochemical; details: 1.0 mM; 1 mM tris-HCl pH 7.5
T3 sequence (Q9I5E2 1-298): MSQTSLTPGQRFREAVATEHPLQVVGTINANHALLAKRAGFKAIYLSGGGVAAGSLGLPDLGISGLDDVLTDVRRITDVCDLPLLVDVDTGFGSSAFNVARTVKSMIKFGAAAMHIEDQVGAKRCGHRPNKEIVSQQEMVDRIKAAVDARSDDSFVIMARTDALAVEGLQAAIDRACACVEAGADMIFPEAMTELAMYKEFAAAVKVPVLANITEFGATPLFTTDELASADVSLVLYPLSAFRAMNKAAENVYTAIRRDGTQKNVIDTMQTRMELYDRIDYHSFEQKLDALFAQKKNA

[2] = molecular target: PmiR (PA0797), wild type (Pseudomonas aeruginosa PAO1); assay: SEC

`C[C@](O)(C(=O)O)[C@H](CC(=O)O)C(=O)O` (racemic) [MIC] was tested, and the Kd [1] was 62.9 µM and the Kd (PmiR) was 21.8 µM.

`O=C(O)C[C@H](C(=O)O)[C@@H](O)C(=O)O` [isocitrate] showed a Kd (PmiR) of 64.1 µM.

In the case of `CC(=O)C(=O)O` [pyruvate], the “HPLC-UV, A214” value (PrpB) is reported as “PrpB, methylisocitrate lyase, was the last but critical enzyme to convert MIC to succinate and pyruvate”.

“PmiR (PA0797), wild type (natural protein)” was tested, and the stoichiometry N [2] was 2.
